Legend:
Assay in all cases: combination Emax (second highest fraction inhibited in the dose matrix, 72 h); higher = more inhibition; extreme values may be limits of the assay
KP-N-YN (Neuroblastoma) = system: KP-N-YN (Neuroblastoma)
Procedure, shortened: (§1)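 After 24 hours at 37°C and 5% CO2 in 1536-well plates, cells in DMEM/F12 or RPMI plus 10% FBS received two-drug dose matrices for 72 hours. Viability came from CellTiter-Glo 2.0 luminescence and was scaled as inhibition, anchored at 0 by vehicle wells and at 1 by blank wells. Combination Emax is taken as the second-highest inhibition in the matrix, and Bliss excess as the observed combination effect less EA + EB − EA·EB, with EA and EB the single-agent effects.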

[1] = system: LS-411N (Colorectal Carcinoma)
Procedure, shortened: as §1

A204 (Rhabdomyosarcoma) = system: A204 (Rhabdomyosarcoma)
Procedure, shortened: as §1

[2] = system: NCI-H716 (Colorectal Carcinoma)
Procedure, shortened: as §1

[3] = system: HCC1428 (Breast Carcinoma)
Procedure, shortened: as §1

5637 (Bladder Carcinoma) = system: 5637 (Bladder Carcinoma)
Procedure, shortened: as §1

[4] = system: UACC-812 (Breast Carcinoma)
Procedure, shortened: as §1

[5] = system: CESS (Acute Myeloid Leukemia)
Procedure, shortened: as §1

[6] = system: TE-10 (Esophageal Squamous Cell Carcinoma)
Procedure, shortened: as §1

[7] = system: A253 (Head and Neck Carcinoma)
Procedure, shortened: as §1

[8] = system: huH-1 (Hepatocellular Carcinoma)
Procedure, shortened: as §1

[9] = system: DMS-53 (Small Cell Lung Carcinoma)
Procedure, shortened: as §1

Row | SMILES | combination Emax (KP-N-YN (Neuroblastoma)) | combination Emax [1] | combination Emax (A204 (Rhabdomyosarcoma)) | combination Emax [2] | combination Emax [3] | combination Emax (5637 (Bladder Carcinoma)) | combination Emax [4] | combination Emax [5] | combination Emax [6] | combination Emax [7] | combination Emax [8] | combination Emax [9]
1 | Cc1cc2ncnn2cc1Nc1ncc2c(n1)n(C1CCOCC1)c(=O)n2C [AZD7648] + CCN(CCO)CCCOc1ccc2c(Nc3cc(CC(=O)Nc4cccc(F)c4)[nH]n3)ncnc2c1 [AZD2811] (first compound max 10 µM, 7x7, partner max 1 µM) | 0.6 | 0.208 | 0.467 | 0.336 | 0.326 | 0.648 | 0.242 | 0.243 | 0.335 | 0.316 | 0.561 | 0.165
2 | Cc1cc2ncnn2cc1Nc1ncc2c(n1)n(C1CCOCC1)c(=O)n2C [AZD7648] + CN(C)CCCOc1ccc(-c2ccc3ncc4c(c3c2)n(C2CCOCC2)c(=O)n4C)cn1 [AZD0156] (first compound max 10 µM, 7x7, partner max 1 µM) | 0.265 | 0.115 | 0.384 | 0.251 | 0.238 | 0.153 | 0.288 | 0.367 | 0.292 | 0.244 | 0.3 | 0.139
3 | CN(CCO)CC[C@H](CSc1ccccc1)Nc1ccc(S(=O)(=O)NC(=O)c2ccc(N3CCC([C@@H](O)c4ccccc4-c4ccc(Cl)cc4)CC3)cc2)cc1S(=O)(=O)C(F)(F)F [AZD4320] + C1CN(CCC1(C(=O)N[C@@H](CCO)C2=CC=C(C=C2)Cl)N)C3=NC=NC4=C3C=CN4 [Capivasertib] (first compound max 1 µM, 7x7, partner max 3 µM) | – | 0.543 | 0.266 | 0.393 | 0.446 | 0.328 | 0.226 | 0.69 | 0.231 | 0.499 | 0.197 | 0.965
4 | CN(CCO)CC[C@H](CSc1ccccc1)Nc1ccc(S(=O)(=O)NC(=O)c2ccc(N3CCC([C@@H](O)c4ccccc4-c4ccc(Cl)cc4)CC3)cc2)cc1S(=O)(=O)C(F)(F)F [AZD4320] + C=CCn1c(=O)c2cnc(Nc3ccc(N4CCN(C)CC4)cc3)nc2n1-c1cccc(C(C)(C)O)n1 [AZD1775] (first compound max 1 µM, partner max 1 µM) | – | 0.938 | 0.334 | 0.449 | 0.505 | 0.979 | 0.14 | 1 | 0.848 | 0.531 | 0.613 | 0.977
5 | CN(CCO)CC[C@H](CSc1ccccc1)Nc1ccc(S(=O)(=O)NC(=O)c2ccc(N3CCC([C@@H](O)c4ccccc4-c4ccc(Cl)cc4)CC3)cc2)cc1S(=O)(=O)C(F)(F)F [AZD4320] + C[C@@H]1COCCN1C2=NC(=NC(=C2)C3(CC3)[S@](=N)(=O)C)C4=C5C=CNC5=NC=C4 [AZD6738] (first compound max 1 µM, 7x7, partner max 10 µM) | – | 0.943 | 0.438 | 0.647 | 0.708 | 0.91 | 0.275 | 0.987 | 0.84 | 0.892 | 0.823 | 0.994
6 | Cc1cc2ncnn2cc1Nc1ncc2c(n1)n(C1CCOCC1)c(=O)n2C [AZD7648] + C[C@@H]1COCCN1C2=NC(=NC(=C2)C3(CC3)[S@](=N)(=O)C)C4=C5C=CNC5=NC=C4 [AZD6738] (first compound max 10 µM, 7x7, partner max 10 µM) | 0.947 | 0.723 | 0.439 | 0.539 | 0.201 | 0.632 | 0.267 | 0.847 | 0.887 | 0.77 | 0.8 | 0.153
7 | Cc1cc2ncnn2cc1Nc1ncc2c(n1)n(C1CCOCC1)c(=O)n2C [AZD7648] + O=C(c1cc(Cc2n[nH]c(=O)c3ccccc23)ccc1F)N1CCN(C(=O)C2CC2)CC1 [Olaparib] (first compound max 10 µM, 7x7, partner max 10 µM) | 0.346 | 0.0674 | 0.246 | 0.258 | 0.147 | 0.25 | 0.177 | 0.37 | 0.233 | 0.17 | 0.198 | 0.128
8 | COc1cc2c(cc1OCCCCCOc1cc3c(cc1OC)C(=O)N1C=C(C)C[C@H]1C=N3)N=C[C@@H]1CC(C)=CN1C2=O [SG3199] + O=C(c1cc(Cc2n[nH]c(=O)c3ccccc23)ccc1F)N1CCN(C(=O)C2CC2)CC1 [Olaparib] (first compound max 0.001 µM, 7x7, partner max 10 µM) | 0.341 | 0.0262 | 0.178 | 0.233 | 0.0458 | 0.187 | 0.134 | 0.182 | 0.107 | 0.0649 | 0.142 | 0.153
9 | Cc1cc2ncnn2cc1Nc1ncc2c(n1)n(C1CCOCC1)c(=O)n2C [AZD7648] + C=CCn1c(=O)c2cnc(Nc3ccc(N4CCN(C)CC4)cc3)nc2n1-c1cccc(C(C)(C)O)n1 [AZD1775] (first compound max 10 µM, partner max 1 µM) | 0.942 | 0.574 | 0.43 | 0.487 | 0.238 | 0.792 | 0.209 | 0.919 | 0.86 | 0.415 | 0.746 | 0.204
10 | CN(CCO)CC[C@H](CSc1ccccc1)Nc1ccc(S(=O)(=O)NC(=O)c2ccc(N3CCC([C@@H](O)c4ccccc4-c4ccc(Cl)cc4)CC3)cc2)cc1S(=O)(=O)C(F)(F)F [AZD4320] + Cc1cc2ncnn2cc1Nc1ncc2c(n1)n(C1CCOCC1)c(=O)n2C [AZD7648] (first compound max 1 µM, 7x7, partner max 10 µM) | – | 0.183 | 0.273 | 0.209 | 0.584 | 0.172 | 0.15 | 0.566 | 0.202 | 0.149 | 0.127 | 0.977
